Data on ten compounds can be found in US10160756B2 (priority 2014, dated 2018).

Assay [1] relates to MARV VP40 (mVP40) VLPs. The experiment in a line: organism not typed. The format is cell-based, Marburg virus (MARV).
The test system of assay [2] is VSV-WT. The format is cell-based, vesicular stomatitis virus (Indiana strain).
Assay [3] has as its system EBOV VP40 (eVP40) VLPs. The format is cell-based, Ebola virus (EBOV).
Assay [4] addresses mVP40-Nedd4 interaction (Homo sapiens, UniProt P46934). The format is cell-based.
For assay [5], the system named is E-BiMC (Ebola VP40). The format is cell-based.
Assay [6] relates to LFV Z VLPs. The format is cell-based, Lassa fever virus (LFV).
For assay [7], the system named is VSV-M40. The format is cell-based, vesicular stomatitis virus.

Structures are written as SMILES. Read-outs that look alike come from different tables or passages of the source.

mVP40-Nedd4 interaction, sequence (P46934 whole entry): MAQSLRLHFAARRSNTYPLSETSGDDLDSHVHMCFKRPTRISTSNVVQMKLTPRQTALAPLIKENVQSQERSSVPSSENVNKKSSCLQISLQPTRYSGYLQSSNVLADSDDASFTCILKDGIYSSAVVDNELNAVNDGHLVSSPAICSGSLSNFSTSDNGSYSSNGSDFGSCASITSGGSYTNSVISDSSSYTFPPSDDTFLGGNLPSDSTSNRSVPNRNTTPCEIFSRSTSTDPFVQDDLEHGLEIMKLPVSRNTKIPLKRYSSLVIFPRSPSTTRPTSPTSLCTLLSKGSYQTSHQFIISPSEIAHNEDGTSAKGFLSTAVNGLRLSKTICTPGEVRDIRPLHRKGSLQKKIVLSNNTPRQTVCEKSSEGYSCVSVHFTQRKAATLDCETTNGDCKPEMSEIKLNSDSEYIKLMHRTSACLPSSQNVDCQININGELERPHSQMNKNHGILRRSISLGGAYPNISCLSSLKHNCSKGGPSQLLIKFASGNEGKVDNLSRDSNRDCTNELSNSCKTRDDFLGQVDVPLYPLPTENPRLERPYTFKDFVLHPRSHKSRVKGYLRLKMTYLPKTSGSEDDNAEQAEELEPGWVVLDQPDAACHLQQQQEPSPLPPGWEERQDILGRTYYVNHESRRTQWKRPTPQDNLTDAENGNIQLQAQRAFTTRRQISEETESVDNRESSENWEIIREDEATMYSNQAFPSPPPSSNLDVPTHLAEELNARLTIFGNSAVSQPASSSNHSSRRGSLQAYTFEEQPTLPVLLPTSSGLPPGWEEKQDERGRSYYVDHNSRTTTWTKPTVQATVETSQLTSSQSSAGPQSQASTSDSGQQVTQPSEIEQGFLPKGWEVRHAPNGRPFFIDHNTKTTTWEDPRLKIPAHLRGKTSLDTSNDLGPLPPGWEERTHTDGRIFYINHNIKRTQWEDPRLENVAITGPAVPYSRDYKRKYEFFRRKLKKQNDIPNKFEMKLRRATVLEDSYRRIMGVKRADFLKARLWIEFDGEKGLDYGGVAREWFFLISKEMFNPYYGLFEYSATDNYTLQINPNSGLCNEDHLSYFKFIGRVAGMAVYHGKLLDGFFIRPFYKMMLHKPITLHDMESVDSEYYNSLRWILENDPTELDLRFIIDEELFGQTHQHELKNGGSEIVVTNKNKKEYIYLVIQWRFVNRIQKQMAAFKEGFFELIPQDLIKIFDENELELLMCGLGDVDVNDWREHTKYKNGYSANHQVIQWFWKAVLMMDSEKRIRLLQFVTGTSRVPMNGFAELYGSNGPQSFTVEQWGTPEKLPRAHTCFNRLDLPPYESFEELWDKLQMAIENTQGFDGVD

Consider `O=C(CN1CCCC(c2nc3ccccc3s2)C1)NC(=O)NCC(F)(F)F` (stereo not shown) [Compound 1, 2-(3-(benzo[d]thiazol-2-yl)piperidin-1-yl)-N-((2,2,2-trifluoroethyl)carbamoyl) acetamide], for which, in assay [1] (20 μM), the “inhibition of egress of mVP40 VLPs” value is recorded as ~5 fold. For the same compound, the “reduction of budding of VSV-WT” value in assay [2] (10 μM) is “approximately 5 fold”.
Consider `Cc1n[nH]c(C)c1NC(=O)CN1CCCC(c2nc3ccccc3s2)C1` (stereo not shown) [Compound 2, 2-(3-(benzo[d]thiazol-2-yl)piperidin-1-yl)-N-(3,5-dimethyl-1H-pyrazol-4-yl) acetamide], for which, in assay [1] (20 μM), the “inhibition of egress of Marburg (M) VP40 VLPs” value was “nearly full inhibition” and the “inhibition of egress of mVP40 VLPs” value was 33 fold. Moreover, the “inhibition of egress of mVP40 VLPs” value in assay [1] (40 μM) came to 100 fold. Further, the “inhibition of egress of eVP40 VLPs” value in assay [3] (20 μM) was 2.5 fold. In assay [3] (40 μM), the “inhibition of egress of Ebola (E) VP40 VLPs” value is reported as “nearly full inhibition” and the “inhibition of egress of eVP40 VLPs” value amounted to 40 fold. Also, in assay [2], the “inhibition of budding of live wild type VSV” value is “significantly inhibited”. Besides, in assay [4], the “target engagement in M-BiMC assay” value is given as “showed target engagement”. The “target engagement in E-BiMC assay” value in assay [5] is “showed target engagement”.
Turning to `O=C(CN1CCCC(c2nc3ccccc3s2)C1)NCCOc1ccccc1` (stereo not shown) [Compound 2e, 2-(3-(benzo[d]thiazol-2-yl)piperidin-1-yl)-N-(2-phenoxyethyl)acetamide], the “activity in the M VP40 budding assay” value in assay [1] (10 μM) was “active”.
For the compound `Cc1n[nH]c(C)c1NC(=O)CN1CCN(c2nc3ccccc3s2)CC1` [Compound 2g, 2-(4-(benzo[d]thiazol-2-yl)piperazin-1-yl)-N-(3,5-dimethyl-1H-pyrazol-4-yl)acetamide], in assay [1], the “activity in SAR studies, MVP40 VLP budding (words, FIG. 10)” value (“activity in SAR studies” below) was “inactive”.
With `Cc1nc2ccccc2nc1SCC(=O)NC(=O)NCC(F)(F)F` [Compound 3, 2-((3-methylquinoxalin-2-yl)thio)-N-((2,2,2-trifluoroethyl)carbamoyl) acetamide], the “activity in SAR studies” value in assay [1] is on record as “very effective”. Moreover, the “inhibition of egress of mVP40 VLPs” value in assay [1] (1.0 μM) is reported as 10 fold; in assay [1] (10 μM), 100 fold; in assay [1] (20 μM), 100 fold. Further, the figures for the “inhibition of egress of eVP40 VLPs” value in assay [3] (1.0 μM), in assay [3] (10 μM) and in assay [3] (20 μM) were < 2 fold, 4.5 fold and 20 fold, respectively.
For the compound `CCNC(=O)NC(=O)CSc1nc2ccccc2nc1C` [Compound 3f, N-(ethylcarbamoyl)-2-((3-methylquinoxalin-2-yl)thio)acetamide], in assay [1], the “potency relative to 3 in the MVP40 budding assay” value was “as or more potent than 3”.
On the same count and under the same terms, the entry for `Cc1nc2ccccc2nc1SCC(=O)NC(=O)NC1CC1` [Compound 3g, N-(cyclopropylcarbamoyl)-2-((3-methylquinoxalin-2-yl)thio)acetamide] is “as or more potent than 3”; for `Cc1nc2ccccc2nc1SCC(=O)NC(=O)NCc1cccs1` [Compound 3i, 2-((3-methylquinoxalin-2-yl)thio)-N-((thiophen-2-ylmethyl)carbamoyl)acetamide] it is “as or more potent than 3”.
As to `Cc1nn(-c2ccccc2)c(C)c1NC(=O)CN1CCCC(c2nc3ccccc3s2)C1` (stereo not shown) [Compound 4, 2-(3-(benzo[d]thiazol-2-yl)piperidin-1-yl)-N-(3,5-dimethyl-1-phenyl-1H-pyrazol-4-yl)acetamide], in assay [1], the “activity in SAR studies” value was “sub-micromolar” and the “budding of mVP40 VLPs reduced” value is listed as > 90%. Besides, the “inhibition of egress of mVP40 VLPs” value in assay [1] (0.5 μM) was 30 fold. The “inhibition of egress of mVP40 VLPs” value in assay [1] (1.0 μM) is recorded as 100 fold. For the same compound, the “inhibition of egress of eVP40 VLPs” value in assay [3] (0.5 μM) worked out at 3 fold. Also, the “inhibition of egress of eVP40 VLPs” value in assay [3] (1.0 μM) worked out at 10 fold. In addition, in assay [6] (0.5 μM), the “inhibition of egress of LFV Z VLPs” value is reported as > 5 fold. Moreover, the “PPxY-dependent budding of VSV reduced” value in assay [2] (0.1 μM) was “approximately 50%”. In assay [2] (0.5 μM), the “PPxY-dependent budding of VSV reduced” value is ~100%, the “inhibition of egress of VSV-WT” value is recorded as “approximately 20 fold”, the “inhibition of egress of live VSV-WT” value is given as “more than 1 log” and the “titer of VSV-WT” value is reported as 1.8×10^6 pfu/ml. In addition, the “inhibition of egress of VSV-M40” value in assay [7] (0.1 μM) is on record as “approximately 2 fold”. In addition, in assay [7] (0.5 μM), the “inhibition of egress of VSV-M40” value was determined as 3 fold.
As to `Cc1nc2ccccc2nc1SCC(=O)NC(=O)Nc1ccccc1` [Compound 5, 2-((3-methylquinoxalin-2-yl)thio)-N-(phenylcarbamoyl)acetamide], the “inhibition of egress of mVP40 VLPs” value in assay [1] (0.1 μM) is listed as 25 fold; in assay [1] (0.5 μM), 100 fold; in assay [1] (1.0 μM), 100 fold. In assay [1] (read-out: IC50, anti-budding activity on MVP40), the IC50 (commonly the point on the concentration scale where inhibition reaches its midpoint) was < 100 nM. The “inhibition of egress of eVP40 VLPs” value in assay [3] (0.1 μM) is recorded as < 2 fold; in assay [3] (0.5 μM), 3.5 fold; in assay [3] (1.0 μM), 7 fold. The results for the “inhibition of egress of LFV Z VLPs” value in assay [6] (0.1 μM) and in assay [6] (0.5 μM) were “approximately 3 fold” and ~5 fold, respectively. The “inhibition of egress of VSV-WT” value in assay [2] (0.5 μM) amounted to 4 fold. Further, the “inhibition of egress of VSV-M40” value came to 2 fold in assay [7] (0.1 μM) and 6 fold in assay [7] (0.5 μM).
